Assay results from patent publication US11312727B1, “Macrocyclic flu endonuclease inhibitors” (Janssen BioPharma, Inc., priority 2018, dated 2022).
Where two headings read alike, the source gives them in different places.

Assays:
[1] = test system: Influenza strain A549 A/WSN/33 (H1N1); assay: microbe, parasite or virus in culture; type: cell-based; settings: A549 cells, influenza A/WSN/33 (H1N1), 20 hours incubation, read-out: A549_A(H1N1) EC50
[2] = test system: Human lung carcinoma A549 cells; settings: uninfected A549 cells, CellTiter-Glo
in vitro = settings: human, CC50, uninfected A549 cells, CellTiter-Glo

| Structure (SMILES) | EC50 ([1]; Influenza A virus, A549, 20 h) [nM] | CC50 (in vitro) [nM] | also measured |
| --- | --- | --- | --- |
| CCC1C=CCOc2ccccc2C(c2ccccc2)N2CN1C(=O)c1c(OCc3ccccc3)c(=O)ccn12 (stereo not shown) | – | – | ring closure, yield of all isomers (from C=CCOc1ccccc1C(c1ccccc1)N1CN(C(C=C)CC)C(=O)c2c(OCc3ccccc3)c(=O)ccn21, rcm bond, Hoveyda-Grubbs catalyst 2nd generation, DCE, […], 80.0 °C, 2.0 h): 62.5% |
| O=C1CCN2CN(C(c3ccccc3)c3ccccc3CN1)n1ccc(=O)c(OCc3ccccc3)c1C2=O (stereo not shown) | – | – | ring closure, yield of all isomers (from NCc1ccccc1C(c1ccccc1)N1CN(CCC(=O)O)C(=O)c2c(OCc3ccccc3)c(=O)ccn21, amide bond, HATU, DMF, […], 80.0 °C): 51.7% |
| O=C1c2c(OCc3ccccc3)c(=O)ccn2N2CN1C1(C=CCOc3c(ccc(F)c3F)C2c2ccccc2)CCC1 (stereo not shown) | – | – | ring closure, yield of all isomers (from C=CCOc1c(C(c2ccccc2)N2CN(C3(C=C)CCC3)C(=O)c3c(OCc4ccccc4)c(=O)ccn32)ccc(F)c1F, rcm bond, Hoveyda-Grubbs II, dichloroethane, 12.05 mM, 100.0 °C, 6.0 h): 40.7% |
| O=C1c2c(OCc3ccccc3)c(=O)ccn2N2CN1CC1CC1COc1ccccc1C2c1ccccc1 (stereo not shown) | – | – | ring closure, yield of all isomers (from O=C1c2c(OCc3ccccc3)c(=O)ccn2N(C(c2ccccc2)c2ccccc2O)CN1CC1CC1CBr, ether bond, K2CO3, CH3CN, 44.8 mM, […], 0.5 h): 55.8% |
| O=C1c2c(OCc3ccccc3)c(=O)ccn2N2CN1CC=CCCOc1cccc(c1)C2c1ccccc1 (stereo not shown) | – | – | ring closure, yield of all isomers (from C=CCCOc1cccc(C(c2ccccc2)N2CN(CC=C)C(=O)c3c(OCc4ccccc4)c(=O)ccn32)c1, rcm bond, Hoveyda-Grubbs 2nd generation, DCE, 12.1 mM, 90.0 °C, […]): 8.9% |
| O=C1c2c(OCc3ccccc3)c(=O)ccn2N2CN1CC=CCOc1c(F)cccc1C2c1cccc(F)c1 (stereo not shown) | – | – | ring closure, yield of all isomers (from C=CCOc1c(F)cccc1C(c1cccc(F)c1)N1CN(CC=C)C(=O)c2c(OCc3ccccc3)c(=O)ccn21, rcm bond, Hoveyda-Grubbs second generation catalyst, DCE, 19.6 mM, 80.0 °C, 2.0 h): 13.6% |
| O=C1c2c(OCc3ccccc3)c(=O)ccn2N2CN1CC=CCOc1cccc3c1C2c1ccccc1SC3 (stereo not shown) | – | – | ring closure, yield of all isomers (from C=CCOc1cccc2c1C(N1CN(CC=C)C(=O)c3c(OCc4ccccc4)c(=O)ccn31)c1ccccc1SC2, rcm bond, Hoveyda-Grubbs catalyst 2nd generation, DCE, 16.04 mM, 80.0 °C, […]): 15% |
| O=C1c2c(OCc3ccccc3)c(=O)ccn2N2CN1CC=CCOc1ccccc1C2c1ccccc1 (stereo not shown) | – | – | ring closure, yield of all isomers (from C=CCOc1ccccc1C(c1ccccc1)N1CN(CC=C)C(=O)c2c(OCc3ccccc3)c(=O)ccn21, rcm bond, Hoveyda-Grubbs 2nd generation, DCE, […], 80.0 °C, 2.0 h): 21.4% |
| O=C1c2c(OCc3ccccc3)c(=O)ccn2N2CN1CC=CCOc1ccccc1C2c1ccccn1 (stereo not shown) | – | – | ring closure, yield of all isomers (from C=CCOc1ccccc1C(c1ccccn1)N1CN(CC=C)C(=O)c2c(OCc3ccccc3)c(=O)ccn21, rcm bond, Hoveyda-Grubbs catalyst 2nd generation, DCE, 14.6 mM, 80.0 °C, 2.0 h): 9.7% |
| O=C1c2c(OCc3ccccc3)c(=O)ccn2N2CN1CCC=CCOc1cccc3c1C2c1ccccc1SC3 (stereo not shown) | – | – | ring closure, yield of all isomers (from C=CCCN1CN(C2c3ccccc3SCc3cccc(OCC=C)c32)n2ccc(=O)c(OCc3ccccc3)c2C1=O, rcm bond, Hoveyda-Grubbs catalyst 2nd generation, DCE, 13.86 mM, 80.0 °C, […]): 19.8% |
| O=C1c2c(OCc3ccccc3)c(=O)ccn2N2CN1CCC=CCc1ccccc1C2c1ccccc1 (stereo not shown) | – | – | ring closure, yield of all isomers (from C=CCCN1CN(C(c2ccccc2)c2ccccc2CC=C)n2ccc(=O)c(OCc3ccccc3)c2C1=O, rcm bond, Hoveyda-Grubbs 2nd generation, DCE, 12.7 mM, 80.0 °C, 3.0 h): 69.2% |
| O=C1c2c(O)c(=O)ccn2N2CN1C/C=C\CCc1ccccc1C2c1ccncc1 (single isomer, unassigned) [Compound 52A, (16*R,*Z)-4-hydroxy-16-(pyridin-4-yl)-7,10,11,16-tetrahydro-6,17-methanobenzo[k]pyrido[1,2-b][1,2,5]triazacyclotridecine-3,5-dione] | – | – | EC50 [1]: > 1000 nM; CC50 [2]: > 2000 nM |
| O=C1c2c(O)c(=O)ccn2N2CN1C/C=C\CCc1ccccc1C2c1ccncc1 (single isomer, unassigned) [Compound 52B, (16*S,*Z)-4-hydroxy-16-(pyridin-4-yl)-7,10,11,16-tetrahydro-6,17-methanobenzo[k]pyrido[1,2-b][1,2,5]triazacyclotridecine-3,5-dione] | – | – | EC50 [1]: 84 nM; CC50 [2]: > 2000 nM |
| O=C1c2c(O)c(=O)ccn2N2CN1CCCCCOc1cccc3c1[C@@H]2c1ccccc1SC3 (single isomer, unassigned) [Compound 69A, (23b*R)-6-hydroxy-10,11,12,13,18,23b-hexahydro-9H-1,8-methano[1]benzothiepino[5,4,3-lm]pyrido[2,1-i][1,7,10,11]benzoxatriazacyclotetradecine-5,7-dione] | – | – | EC50 [1]: > 1000 nM; CC50 [2]: > 2000 nM |
| O=C1c2c(O)c(=O)ccn2N2CN1CCCCCOc1cccc3c1[C@H]2c1ccccc1SC3 (single isomer, unassigned) [Compound 69B, (23b*S)-6-hydroxy-10,11,12,13,18,23b-hexahydro-9H-1,8-methano[1]benzothiepino[5,4,3-lm]pyrido[2,1-i][1,7,10,11]benzoxatriazacyclotetradecine-5,7-dione] | – | – | EC50 [1]: 27 nM; CC50 [2]: > 2000 nM |
| O=C1c2c(O)c(=O)ccn2N2CN1C/C=C/CCc1c(F)cccc1C2c1cccc(F)n1 (single isomer, unassigned) [Compound 76A, (16*R,E)-12-fluoro-16-(6-fluoropyridin-2-yl)-4-hydroxy-7,10,11,16-tetrahydro-6,17-methanobenzo[k]pyrido[1,2-b][1,2,5]triazacyclotridecine-3,5-dione] | – | – | EC50 [1]: 3590 nM; CC50 [2]: 43900 nM |
| CC[C@@H]1/C=C/COc2cccc3c2[C@H](c2ccccc2SC3)N2CN1C(=O)c1c(O)c(=O)ccn12 [Compound 92AB, (9R,17aR,E)-9-ethyl-12-hydroxy-2,6,9,17a-tetrahydro-3,4-(epiprop[1]en[1]yl[3]ylidene)-10,17-methanobenzo[6,7]thiepino[4,5-c]pyrido[1,2-f][1]oxa[5,6,9]triazacyclotridecine-11,13-dione] | > 500 | > 1000 | – |
| CC[C@@H]1/C=C\COc2cccc3c2[C@@H](c2ccccc2SC3)N2CN1C(=O)c1c(O)c(=O)ccn12 [Compound 92BB, (13R,21aS,Z)-13-ethyl-16-hydroxy-6,10,13,21a-tetrahydro-7,8-(epiprop[1]en[1]yl[3]ylidene)-14,21-methanobenzo[6,7]thiepino[4,5-c]pyrido[1,2-f][1]oxa[5,6,9]triazacyclotridecine-15,17-dione] | 1.5 | > 100 | – |
| CC[C@H]1/C=C/COc2c(ccc(F)c2F)[C@@H](c2ccccc2)N2CN1C(=O)c1c(O)c(=O)ccn12 [Compound 101AA, (9S,18R,E)-9-ethyl-3,4-difluoro-12-hydroxy-18-phenyl-6,9-dihydro-18H-10,17-methanobenzo[b]pyrido[1,2-f][1]oxa[5,6,9]triazacyclotridecine-11,13-dione] | 0.7 | > 100 | – |
| CC[C@@H]1/C=C/COc2c(ccc(F)c2F)[C@@H](c2ccccc2)N2CN1C(=O)c1c(O)c(=O)ccn12 [Compound 101AB, (9R,18R,E)-9-ethyl-3,4-difluoro-12-hydroxy-18-phenyl-6,9-dihydro-18H-10,17-methanobenzo[b]pyrido[1,2-f][1]oxa[5,6,9]triazacyclotridecine-11,13-dione] | 1.3 | > 200 | – |
| CC[C@H]1/C=C/COc2c(ccc(F)c2F)[C@H](c2ccccc2)N2CN1C(=O)c1c(O)c(=O)ccn12 [Compound 101BA, (9S,18S,E)-9-ethyl-3,4-difluoro-12-hydroxy-18-phenyl-6,9-dihydro-18H-10,17-methanobenzo[b]pyrido[1,2-f][1]oxa[5,6,9]triazacyclotridecine-11,13-dione] | > 100 | > 200 | – |
| CC[C@@H]1/C=C/COc2c(ccc(F)c2F)[C@H](c2ccccc2)N2CN1C(=O)c1c(O)c(=O)ccn12 [Compound 101BB, (9R,18S,E)-9-ethyl-3,4-difluoro-12-hydroxy-18-phenyl-6,9-dihydro-18H-10,17-methanobenzo[b]pyrido[1,2-f][1]oxa[5,6,9]triazacyclotridecine-11,13-dione] | 5030 | 29900 | – |
| O=C1c2c(O)c(=O)ccn2N2CN1C1(/C=C/COc3c(ccc(F)c3F)[C@H]2c2ccccc2)CC1 [Compound 102A, (18′R,E)-3′,4′-difluoro-12′-hydroxy-18′-phenyl-6′H,18′H-spiro[cyclopropane-1,9′-[10,17]methanobenzo[b]pyrido[1,2-f][1]oxa[5,6,9]triazacyclotridecine]-11′,13′-dione] | 0.9 | > 100 | – |
| O=C1c2c(O)c(=O)ccn2N2CN1C1(/C=C/COc3c(ccc(F)c3F)[C@@H]2c2ccccc2)CC1 [Compound 102B, (18'S,E)-3′,4′-difluoro-12′-hydroxy-18′-phenyl-6′H,18′H-spiro[cyclopropane-1,9′-[10,17]methanobenzo[b]pyrido[1,2-f][1]oxa[5,6,9]triazacyclotridecine]-11′,13′-dione] | 3360 | 33900 | – |
| O=C1c2c(O)c(=O)ccn2N2CN1C/C=C/COc1c(F)cccc1[C@@H]2c1ccccc1C1CC1 [Compound 123B, (18S,E)-18-(2-cyclopropylphenyl)-4-fluoro-12-hydroxy-6,9-dihydro-18H-10,17-methanobenzo[b]pyrido[1,2-f][1]oxa[5,6,9]triazacyclotridecine-11,13-dione] | > 100 | > 200 | – |
| O=C1c2c(O)c(=O)ccn2N2CN1C1(/C=C/COc3c(ccc(F)c3F)[C@H]2c2ccccc2)CCC1 [Compound 146A, (18′R,E)-3′,4′-difluoro-12′-hydroxy-18′-phenyl-6′H,18′H-spiro[cyclobutane-1,9′-[10,17]methanobenzo[b]pyrido[1,2-f][1]oxa[5,6,9]triazacyclotridecine]-11′,13′-dione] | 0.65 | > 100 | – |
| O=C1c2c(O)c(=O)ccn2N2CN1C1(/C=C/COc3c(ccc(F)c3F)[C@@H]2c2ccccc2)CCC1 [Compound 146B, (18'S,E)-3′,4′-difluoro-12′-hydroxy-18′-phenyl-6′H,18′H-spiro[cyclobutane-1,9′-[10,17]methanobenzo[b]pyrido[1,2-f][1]oxa[5,6,9]triazacyclotridecine]-11′,13′-dione] | 340 | > 10000 | – |
